Holding throughout (type): cell-based
Assay [1] deals with alpha-smooth muscle actin (α-SMA). In words: Inhibition of TGF-β induced expression of alpha-smooth muscle actin (α-SMA) in CFSC cells (western blot). Conditions: compound at 10 μM, TGF-β (10 ng/mL), 24 hours, band intensity vs TGF-β only. The procedure: The ability of a compound to inhabit the TGF-β induced expression of alpha-smooth muscle actin (α-SMA) was evaluated in CCl4-treated fat storing (CFSC) cells. α-SMA is considered as a reliable marker of hepatic stellate cell activation and a key biomarker for liver fibrosis.
CFSC cells maintained in a DMEM medium supplemented with 10% fetal bovine serum were seeded to 12-well culture dishes and grown to a confluence of 60-70% the next day. Culture was changed to a serum-free DMEM medium, and the cells were treated with a compound at 10 μM in the presence of TGF-β (10 ng/mL). The cells were incubated for another 24 hours. All culture was maintained at 37° C. in 5% carbon dioxide.
An NP-40 lysate solution (50 mM Tris (pH 7.4), 150 mM NaCl, 1% NP-40) with EDTA free cocktail added was used to lyse the cells on ice for 30 min. The lysate was collected and centrifuged at 4° C. for 10 min at 12,000 rpm. The pellet was discarded and the supernatant was transferred to a new tube. Cell lysates were loaded with 5× loading buffer and boiled for 10 min, resolved by 10% SDS-polyacrylamide gel electrophoresis (SDS-PAGE), and transferred to PVDF membrane. The membrane was blocked with 5% skim milk in Tris-buffered saline and TWEEN® 20 (TBST; 10 mM Tris-HCl (pH 8.0), 150 mM NaCl, 0.1% TWEEN® 20) for 1 h at room temperature and then incubated with α-SMA and β-actin antibodies overnight at 4° C. After washing twice with TBST, the membrane was probed with a horseradish […] anti-immunoglobulin (1:5000 dilution) for 1 h at room temperature. After two subsequent rinses in TBST, immunoreactive products were reacted with ECL and visualized by a UVP CHEMSTUDIO™ imaging system. The western blotting bands are quantitated using an ImageJ software. The percentage of inhibition was obtained by calculating the percentage decrease in the band intensity compared to the one treated with TGF-β only.
The results are summarized in Table 1, where A represents a value no less of 80% inhibition, B represents a value less than […] but no less than […], C represents a value less than 50% but no less than 30% inhibition, and D represents a value less than 30% inhibition with a compound at 10 μM.

In assay [2] the test system is MDA-MB-231 (breast cancer). In words: Antiproliferative activity (CCK-8 cell viability), MDA-MB-231. The settings on record: Homo sapiens, 72 h, read-out: Antiproliferative activity in cancerous cells, MDA-MB-231 (inhibition of cell growth); for inhibition at 3.3 µM: Compound concentration: 3.3 μM; for inhibition at 10 µM: Compound concentration: 10 μM. An outline of the steps: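 Growth inhibition of human MDA-MB-231 breast cancer cells was assessed with a Cell Counting Kit-8. Cells cultured in DMEM plus 10% FBS were seeded at 2,000-5,000 cells/well, treated after attachment, and kept 72 h at 37° C. CCK-8 solution (10 μL) was added for 4 h, and absorbance at 450 nm was compared with DMSO-treated controls.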

A further assay concerns HepG2 (liver cancer). The assay is described as follows: Antiproliferative activity (CCK-8 cell viability), HepG2. The settings on record: Homo sapiens, 72 h; for inhibition at 3.3 µM: Compound concentration: 3.3 μM; for inhibition at 3.3 µM / inhibition at 10 µM: read-out: Antiproliferative activity in cancerous cells, HepG2 (inhibition of cell growth); for inhibition at 10 µM: Compound concentration: 10 μM. An outline of the steps:
(§1)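 Growth inhibition graded in bands from percent viability against DMSO vehicle, read as CCK-8 absorbance at 450 nm. Compound tested at 3.3, 10 or 30 μM for 72 h, 37 °C; media contained 10% FBS: DMEM for HepG2/SW480, MEM for HeLa, F-12K for A549.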

For the next assay, the system named is SW480 (colon cancer). In words: Antiproliferative activity (CCK-8 cell viability), SW480. The settings on record: Homo sapiens, 72 h, read-out: Antiproliferative activity in cancerous cells, SW480 (inhibition of cell growth); for inhibition at 3.3 µM: Compound concentration: 3.3 μM; for inhibition at 10 µM: Compound concentration: 10 μM. A digest of the protocol:
as §1

The subject of assay [3] is B16F10 (malignant melanoma). In words: Antiproliferative activity (CCK-8 cell viability), B16F10. Conditions: Mus musculus, 72 h, read-out: Antiproliferative activity in cancerous cells, B16F10 (inhibition of cell growth); for inhibition at 3.3 µM: B16-F10, Compound concentration: 3.3 μM; for inhibition at 10 µM: B16-F10, Compound concentration: 10 μM. An outline of the steps: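 Cell growth inhibition was measured in B16F10 malignant melanoma cells with a Cell Counting Kit-8 viability assay. Cells were maintained in DMEM plus 10% fetal bovine serum, seeded at 2,000-5,000 cells/well in 96-well plates, and treated for 72 h at 37° C. Viability was expressed relative to DMSO-treated vehicle control wells.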

Assay [4] has as its system A431 (epidermoid carcinoma). In words: Antiproliferative activity (CCK-8 cell viability), A431. Conditions: Homo sapiens, 72 h, read-out: Antiproliferative activity in cancerous cells, A431 (inhibition of cell growth); for inhibition at 3.3 µM: A-431, Compound concentration: 3.3 μM; for inhibition at 10 µM: A-431, Compound concentration: 10 μM. An outline of the steps:
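This growth inhibition assay used A431 cells maintained in Dulbecco's modified Eagle's medium plus 10% fetal bovine serum. Cells were seeded in 96-well plates, treated with compound for 72 h at 37° C., and then given 10 μL CCK-8 solution. After a further 4 h, absorbance was read at 450 nm.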

In assay [5] the test system is A549 (lung adenocarcinoma). In words: Antiproliferative activity (CCK-8 cell viability), A549. Conditions: Homo sapiens, 72 h, read-out: Antiproliferative activity in cancerous cells, A549 (inhibition of cell growth); for inhibition at 3.3 µM: Compound concentration: 3.3 μM; for inhibition at 10 µM: Compound concentration: 10 μM. A digest of the protocol: as §1
A further assay deals with HeLa (cervical cancer). The assay is described as follows: Antiproliferative activity (CCK-8 cell viability), HeLa. The settings on record: Homo sapiens, 72 h, read-out: Antiproliferative activity in cancerous cells, HELA (inhibition of cell growth); for inhibition at 3.3 µM: Compound concentration: 3.3 μM; for inhibition at 10 µM: Compound concentration: 10 μM. A digest of the protocol: as §1

Take `O=C(O)CC1=C(CC2CCCC2)/C(=C/c2cccc(COc3ccccc3)c2)c2ccc(F)cc21` [A6, (Z)-2-(2-(Cyclopentylmethyl)-5-fluoro-1-(3-(phenoxymethyl)benzylidene)-1H-inden-3-yl)acetic acid]: the inhibition at 10 µM in assay [1] is over 80%; in assay [2], at least 50%; with HepG2 (liver cancer) it was at least 50%; in the assay with SW480 (colon cancer), at least 50%; in assay [3], at least 50%; in assay [4] it was at least 50%. Moreover, the inhibition at 10 µM (in assay [5]; in the assay with HeLa (cervical cancer)) was at least 50% in each case. Moreover, the inhibition at 3.3 µM in assay [2] is at least 50%; in the assay on HepG2 (liver cancer), at least 50%; in the assay on SW480 (colon cancer) it was under 30%; in assay [3] it was at least 50%; in assay [4] it was at least 50%; in assay [5], at least 50%. Besides, in the assay with HeLa (cervical cancer), the inhibition at 3.3 µM is at least 50%.
`CCCC1=C(CC(=O)O)c2cc(F)ccc2/C1=C\c1cccc(COc2ccccc2)c1` [A7, (Z)-2-(5-Fluoro-1-(3-(phenoxymethyl)benzylidene)-2-propyl-1H-inden-3-yl)-acetic acid]: the inhibition at 10 µM in assay [1] is over 80%; in assay [2] it was at least 50%; in the assay with HepG2 (liver cancer) it was under 30%; with SW480 (colon cancer) it was at least 50%; in assay [3], at least 50%; in assay [4] it was at least 50%. Also, the inhibition at 10 µM (in assay [5]; in the assay with HeLa (cervical cancer)) was at least 50% in each case. In addition, the inhibition at 3.3 µM was at least 50% in assay [2]; at least 50% with HepG2 (liver cancer); under 30% in the assay with SW480 (colon cancer); 30 to 50% in assay [3]; under 30% in assay [4]; 30 to 50% in assay [5]. Moreover, in the assay on HeLa (cervical cancer), the inhibition at 3.3 µM is under 30%.
Regarding `O=C(O)CC1=C/C(=C/c2cccc(COc3ccccc3)c2)c2ccc(F)cc21` [A8, (Z)-2-(5-Fluoro-1-(3-(phenoxymethyl)benzylidene)-1H-inden-3-yl)acetic acid], the inhibition at 10 µM in assay [1] was over 80%; in assay [2], at least 50%; in the assay on HepG2 (liver cancer), 30 to 50%; in the assay on SW480 (colon cancer), 30 to 50%; in assay [3], at least 50%; in assay [4] it was 30 to 50%. Besides, the inhibition at 10 µM (in assay [5]; in the assay on HeLa (cervical cancer)) was at least 50% in each case. Further, the inhibition at 3.3 µM in assay [2] is 30 to 50%; in the assay with HepG2 (liver cancer) it was 30 to 50%; in the assay with SW480 (colon cancer) it was under 30%; in assay [3], 30 to 50%; in assay [4] it was under 30%; in assay [5], 30 to 50%. Moreover, the inhibition at 3.3 µM in the assay on HeLa (cervical cancer) is at least 50%.
`COc1ccc2c(c1)/C(=C\c1ccc(OCc3ccccc3)cc1)C=C2CC(=O)O` [A9, (Z)-2-(1-(4-(Benzyloxy)benzylidene)-6-methoxy-1H-inden-3-yl)acetic acid]: the inhibition at 10 µM in assay [1] is over 80%; in assay [2] it was at least 50%; with HepG2 (liver cancer) it was under 30%; in the assay on SW480 (colon cancer) it was at least 50%; in assay [3] it was under 30%; in assay [4] it was at least 50%. Besides, the inhibition at 10 µM in assay [5] is at least 50%; with HeLa (cervical cancer) it was 30 to 50%. In addition, the inhibition at 3.3 µM in assay [2] is under 30%; with HepG2 (liver cancer), under 30%; in the assay on SW480 (colon cancer), 30 to 50%; in assay [3] it was under 30%; in assay [4] it was 30 to 50%; in assay [5], 30 to 50%. Also, the inhibition at 3.3 µM in the assay on HeLa (cervical cancer) is under 30%. Moreover, the inhibition at 30 µM in the assay with HepG2 (liver cancer) (Compound concentration: 30 μM, read-out: Antiproliferative activity in cancerous cells, HepG2) was in the range of 30 to 50%.
In the case of `O=C(O)CC1=C(Cc2ccc(C(F)(F)F)cc2)/C(=C/c2cccc(COc3ccccc3)c2)c2ccc(F)cc21` [A10, (Z)-2-(5-Fluoro-1-(3-(phenoxymethyl)benzylidene)-2-(4-(trifluoromethyl)-benzyl)-1H-inden-3-yl)acetic acid], the inhibition at 10 µM in assay [1] is over 80%; in assay [2] it was at least 50%; with HepG2 (liver cancer) it was at least 50%; in the assay with SW480 (colon cancer), at least 50%; in assay [3], at least 50%; in assay [4] it was at least 50%. The inhibition at 10 µM (in assay [5]; with HeLa (cervical cancer)) was at least 50% each time. For the same compound, the inhibition at 3.3 µM in assay [2] is at least 50%; in the assay with HepG2 (liver cancer) it was at least 50%; in the assay on SW480 (colon cancer), at least 50%; in assay [3] it was at least 50%; in assay [4], at least 50%; in assay [5], 30 to 50%. The inhibition at 3.3 µM in the assay on HeLa (cervical cancer) is at least 50%.
Take `O=C(O)CC1=C(Cc2ccc(Oc3ccc(F)cc3)cc2)/C(=C/c2cccc(COc3ccccc3)c2)c2ccc(F)cc21` [A101, (Z)-2-(5-Fluoro-2-(4-(4-fluorophenoxy)benzyl)-1-(3-(phenoxymethyl)-benzylidene)-1H-inden-3-yl)acetic acid]: the inhibition at 10 µM in assay [1] is over 80%; in assay [2], at least 50%; in the assay on HepG2 (liver cancer), at least 50%; in the assay with SW480 (colon cancer), at least 50%; in assay [3], at least 50%; in assay [4], at least 50%. Besides, the inhibition at 10 µM (in assay [5]; in the assay with HeLa (cervical cancer)) was at least 50% in each case. The inhibition at 3.3 µM (in assay [2]; with HepG2 (liver cancer); in the assay on SW480 (colon cancer); in assay [3]; in assay [4]; in assay [5]) was at least 50% in each case. Further, the inhibition at 3.3 µM in the assay on HeLa (cervical cancer) is at least 50%.

Source of the values: patent US20260184663A1, “INDENE COMPOUNDS, PHARMACEUTICAL COMPOSITIONS THEREOF, AND THEIR THERAPEUTIC APPLICATIONS” (NucMito Pharmaceuticals co. Ltd., priority 2022, published 2026).
